Measured values published in US4762701A, “In vivo cellular tracking” (SmithKline Beckman Corporation, priority 1986, dated 1988).
Peptide text beside a SMILES is read from it.

Tests used:
Yac cells = test: Doubling time of Yac cells after thirty minutes exposure to osmolarity regulating agents; type: cell-based, mouse; details: for Doubling Time: after thirty minutes exposure, PBS is the comparator; for effects on cell doubling time: compared to phosphate buffered saline
Procedure: The effect on cell viability of exposure to a variety of osmolarity regulating agents was determined by measuring the doubling time of Yac cells after the cells were exposed for thirty minutes to a variety of osmolarity regulating agents. Yac cells are a mouse lymphoma tissue culture cell line available from the American Type Culture Collection, Rockville, Maryland, and are described in the European Journal of Immunology 5:112-117 (1975).

[1] = Solubility of DiSC14 (5) in iso-osmotic glucose diluted with water or sodium chloride solution; type: physicochemical
Procedure: Further, the solubility of cyanine dyes in a medium containing classical salts and osmolarity regulators in which the dyes are soluble was evaluated. […] Thus, reproducible cell labelling with cyanine dyes can be performed in media containing no more than small amounts of classical salts, such as sodium chloride, potassium chloride, calcium chloride, sodium acetate, potassium acetate, sodium sulfate, sodium iodide, choline chloride, or choline iodide, and preferably is performed in a medium in which no classical salts are used to regulate osmolarity.

rabbit red cells = test: In vivo stability of labelled rabbit red cells after reinfusion
From the text: To test in vivo stability of cells cyanine dye labelled according to the presently invented method, rabbit red cells were withdrawn, labelled with DiSC14 (5), and reinfused. Periodically thereafter, blood samples were obtained and analyzed for percent labelled cells and fluorescence intensity of the labelled cells.
In the fifth animal, not more than 20% of the cyanine dye had migrated from the labelled cells after 60 days in the rabbits' circulation.

[2] = Cyanine dye solubility in osmolarity regulating agents (relative fluorescence intensity, ethanol standard); type: physicochemical
Procedure: (§1) Included within compounds referred to herein as cyanine dyes are compounds of the above structure having one or more substitutions provided such substituted compounds are soluble in cell labelling media for at least as long as needed for labelling and have a sufficiently high membrane partition coefficient to remain associated with labelled cell membranes. […] Solubility in cell labelling media is determined as shown below by dispursing a cyanine dye in the labelling media and, by standard spectrafluorometric techniques, measuring fluorescence intensity over time. Decreasing fluorescence intensity indicates dye precipitation and adherence to vessel walls. Whether the dyes remain associated with cell membranes is determined, for example, using known flow cytometric procedures to monitor fluorescence intensity of red blood cells injected into the donor animal after labelling. Essentially constant fluorescence intensity of the labelled cells after injection establishes stability of the dye in cell membranes.
All measurements of concentration were made after removal of precipitates by centrifugation and dissolving small aliquots of osmolarity regulating agents containing cyanine dyes into ethanol for spectrofluorometric analysis. The dyes used were DiSC14 (5) and DiOC14 (3), and the osmolarity regulating agents were at iso-osmotic concentrations. Reductions in fluorescence intensity from the ethanol solution standard directly correlate with reductions in cyanine dye solubility.

[3] = Stability of DiSC14 (5) solutions in osmolarity regulating agents; type: physicochemical
Procedure: as §1
Additionally, stability of DiSC14 (5) solutions in sugars such as glucose, fructose, ribose, sorbose, sucrose, and xylose, sugar-alcohols such as glycerol, inositol, xylitol, and adonitol, and amino acids such as glycine and arginine was determined.

V79 cells = test: Growth kinetics of stained V79 cells; type: cell-based; details: 10^-5 or 4×10^-5 M dye, versus unstained cells
Procedure: Cells cyanine dye labelled using the presently invented procedure were analyzed to determine the effect of labelling on cell viability. V79 cells which are available from the American Type Culture Collection, Rockville, Maryland, and are described in Prescott, D. M., Ann. New York Acad. Sci., 397:101-109 (1982), were labelled with a solution containing DiOC14 (3) at a concentration of 10^-5 or 4×10^-5 M and the growth kinetics of the stained cells were compared to unstained cells and an equal mixture of stained and unstained cells. […] Thus, labelling had no effect on cell growth.

[4] = rabbit, reinfused labelled red cells
[5] = in Phosphate Buffered Saline, ethanol = 100
[6] = in iso-osmotic Arginine, ethanol = 100
[7] = in iso-osmotic Choline Chloride, ethanol = 100, ** (DiSC14 (5) value) Artifact due to large crystals that did not pellet
[8] = in iso-osmotic Choline Iodide, ethanol = 100
[9] = in iso-osmotic Fructose, ethanol = 100
[10] = in iso-osmotic Glucose, ethanol = 100
[11] = in iso-osmotic Glycerol, ethanol = 100
[12] = in iso-osmotic Glycine, ethanol = 100
[13] = in iso-osmotic Inositol, ethanol = 100
[14] = in iso-osmotic Lyxose, ethanol = 100
[15] = in iso-osmotic Na2 SO4, ethanol = 100
[16] = in iso-osmotic NaCl, ethanol = 100
[17] = in iso-osmotic NaI, ethanol = 100
[18] = in iso-osmotic Ribose, ethanol = 100
[19] = in iso-osmotic Sorbose, ethanol = 100
[20] = in iso-osmotic Sucrose, ethanol = 100
[21] = in iso-osmotic Xylitol, ethanol = 100
[22] = in iso-osmotic Xylose, ethanol = 100

O=C[C@H](O)[C@@H](O)[C@H](O)[C@H](O)CO [Glucose]
Doubling Time (Yac cells): 34.5 h
effects on cell doubling time (Yac cells): negligible effects on cell doubling time

O=S(=O)(O)CCNC1CCCCC1 [CHES, 2-(N--cyclohexylamino)ethane sulfonic acid]
Doubling Time (Yac cells): 51.5 h

OC[C@H]1O[C@@](CO)(O[C@H]2O[C@H](CO)[C@@H](O)[C@H](O)[C@H]2O)[C@@H](O)[C@@H]1O [Sucrose]
Doubling Time (Yac cells): 41.0 h
effects on cell doubling time (Yac cells): negligible effects on cell doubling time

NCC(=O)NCC(=O)O [Glycylglycine] (H-Gly-Gly-OH)
Doubling Time (Yac cells): 66.9 h

NCCCS(=O)(=O)O [3-Amino-1-propanesulfonic acid]
Doubling Time (Yac cells): 99.6 h

CCCCCCCCCCCCCCN1C(=CC=CC=Cc2sc3ccccc3[n+]2CCCCCCCCCCCCCC)Sc2ccccc21 [DiSC14 (5)]
solubility in iso-osmotic glucose solution on dilution with distilled water ([1]; diluted with distilled water): not significantly affected by dilution with distilled water
solubility in iso-osmotic glucose solution on dilution with sodium chloride solution ([1]; dilution with only approximately 20% iso-osmotic sodium chloride solution): reduced significantly
fluorescence intensity of the stained cells (rabbit red cells; 60 days after labelling and reinjection, all but one of five rabbits): remained essentially unchanged 60 days after labelling and reinjection
cyanine dye migrated from the labelled cells (rabbit red cells; fifth rabbit, after 60 days in circulation): not more than 20%
clearance rate of red blood cells (rabbit red cells; rabbit, labelled red cells): did not affect the clearance rate of red blood cells
lifetime of labelled red cells (rabbit red cells; [4]): 52 days
number of circulating labelled red cells over time (rabbit red cells; [4]): decreased linearly as a function of time
Relative Fluorescence Intensity (CONC) ([2]; in Ethanol (standard)): 100
Relative Fluorescence Intensity (CONC) [2, 5]: 2.1
Relative Fluorescence Intensity (CONC) ([2]; in iso-osmotic Adonitol, ethanol = 100): 34
Relative Fluorescence Intensity (CONC) [2, 6]: 17
Relative Fluorescence Intensity (CONC) ([2]; in iso-osmotic CAPS, ethanol = 100): 40
Relative Fluorescence Intensity (CONC) [2, 7]: 11
Relative Fluorescence Intensity (CONC) [2, 8]: 0.16
Relative Fluorescence Intensity (CONC) ([2]; in iso-osmotic DIPSO, ethanol = 100, *** Precipitate in ethanol (data questionable)): 43
Relative Fluorescence Intensity (CONC) ([2]; in iso-osmotic EPPS, ethanol = 100): 18
Relative Fluorescence Intensity (CONC) [2, 9]: 35
Relative Fluorescence Intensity (CONC) [2, 10]: 31
Relative Fluorescence Intensity (CONC) [2, 11]: 39
Relative Fluorescence Intensity (CONC) [2, 12]: 31
Relative Fluorescence Intensity (CONC) ([2]; in iso-osmotic HEPPSO, ethanol = 100): 20
Relative Fluorescence Intensity (CONC) [2, 13]: 42
Relative Fluorescence Intensity (CONC) [2, 14]: 0.12
Relative Fluorescence Intensity (CONC) ([2]; in iso-osmotic Mannitol, ethanol = 100): 29
Relative Fluorescence Intensity (CONC) [2, 15]: 7.4
Relative Fluorescence Intensity (CONC) [2, 16]: 6
Relative Fluorescence Intensity (CONC) [2, 17]: 1.1
Relative Fluorescence Intensity (CONC) [2, 18]: 24
Relative Fluorescence Intensity (CONC) [2, 19]: 40
Relative Fluorescence Intensity (CONC) [2, 20]: 41
Relative Fluorescence Intensity (CONC) ([2]; in iso-osmotic TAPS, ethanol = 100): 18
Relative Fluorescence Intensity (CONC) [2, 21]: 34
Relative Fluorescence Intensity (CONC) [2, 22]: 36
time for which dye was stable in solution ([3]; in glucose, fructose, ribose, sorbose, sucrose, xylose, glycerol, inositol, xylitol, adonitol, glycine, arginine): at least twenty
amount of cyanine dye in solution at sixty minutes ([3]; in many of the agents, sixty minutes): had not significantly decreased at sixty minutes

O=S(=O)(O)CC(O)CN(CCO)CCO (centres unmarked) [DIPSO, 3-[N--N--bis(2-hydroxyethyl)amino]-2-hydroxypropane-sulfonic acid]
Doubling Time (Yac cells): 36.7 h
effects on cell doubling time (Yac cells): negligible effects on cell doubling time

O=S(=O)(O)CCCN1CCN(CCO)CC1 [EPPS, N--(2-Hydroxyethyl)piperazine-N'--3-propanesulfonic acid]
Doubling Time (Yac cells): 32.2 h
effects on cell doubling time (Yac cells): negligible effects on cell doubling time

O=S(=O)(O)CCCNC(CO)(CO)CO [TAPS, Tris(hydroxymethyl)-methylaminopropane sulfonic acid]
Doubling Time (Yac cells): 32.7 h
effects on cell doubling time (Yac cells): negligible effects on cell doubling time

O=S(=O)(O)CC(O)CN1CCOCC1 (centres unmarked) [MOPSO, 3-(N--morpholino)-2-hydroxypropane-sulfonic acid]
Doubling Time (Yac cells): 178.4 h

NC(=O)CNCCS(=O)(=O)O [ACES, 2-[(2-Amino-2-oxoethyl)amino]ethane sulfonic acid]
Doubling Time (Yac cells): 1038.4 h

O=C(O)CN(CCO)CCO [BICINE, N,N--bis(2-hydroxyethyl)glycine]
Doubling Time (Yac cells): 57.7 h

O=S(=O)(O)CCCNC1CCCCC1 [CAPS, 3-(Cyclohexylamino)-1-propanesulfonic acid]
Doubling Time (Yac cells): 45.8 h
effects on cell doubling time (Yac cells): negligible effects on cell doubling time

O=S(=O)(O)CC(O)CNC(CO)(CO)CO (centres unmarked) [TAPSO, 3-[N--tris(hydroxymethyl)methylamino]-2-hydroxypropanesulfonic acid]
Doubling Time (Yac cells): 63.6 h

N[C@H]1C(O)O[C@H](CO)[C@@H](O)[C@@H]1O (some centres unmarked) [Glucosamine]
Doubling Time (Yac cells): 288.4 h

CCCCCCCCCCCCCCN1C(=CC=Cc2oc3ccccc3[n+]2CCCCCCCCCCCCCC)Oc2ccccc21 [DiOC14 (3)]
Relative Fluorescence Intensity (CONC) ([2]; in Ethanol (standard)): 100
Relative Fluorescence Intensity (CONC) [2, 5]: 6.5
Relative Fluorescence Intensity (CONC) [2, 6]: 17.2
Relative Fluorescence Intensity (CONC) [2, 7]: 6.3
Relative Fluorescence Intensity (CONC) [2, 8]: 2.3
Relative Fluorescence Intensity (CONC) [2, 9]: 100
Relative Fluorescence Intensity (CONC) [2, 10]: 100
Relative Fluorescence Intensity (CONC) [2, 11]: 99.5
Relative Fluorescence Intensity (CONC) [2, 12]: 93
Relative Fluorescence Intensity (CONC) [2, 13]: 92
Relative Fluorescence Intensity (CONC) [2, 14]: 1.8
Relative Fluorescence Intensity (CONC) [2, 15]: 1.6
Relative Fluorescence Intensity (CONC) [2, 16]: 1.7
Relative Fluorescence Intensity (CONC) [2, 17]: 0.14
Relative Fluorescence Intensity (CONC) [2, 18]: 100
Relative Fluorescence Intensity (CONC) [2, 19]: 100
Relative Fluorescence Intensity (CONC) [2, 20]: 100
Relative Fluorescence Intensity (CONC) [2, 21]: 76.4
Relative Fluorescence Intensity (CONC) [2, 22]: 19-52
Cell doubling time of labelled cells (V79 cells): Cell doubling time was unaffected by cyanine dye labelling

O=S(=O)(O)CC(O)CN1CCN(CCO)CC1 (centres unmarked) [HEPPSO, N--2-hydroxyethylpiperazine-N'--2-hydroxypropane-sulfonic acid]
Doubling Time (Yac cells): 23.4 h
effects on cell doubling time (Yac cells): negligible effects on cell doubling time
